Measurements from PubChem BioAssay AID330 (DTP/NCI, 2004).
Values joined by “and” are separate entries in the source; they are usually repeats but may differ in a detail not shown here. Identical values can stand only once. Inconclusive results and toxic doses are left out. The calls were made as follows: active = survival T/C of 150% or more; inactive = T/C below 125% in these data.

Tested on: P388 leukemia ip, CD2F1 mice, survival T/C
Experiment: NCI In Vivo Anticancer Drug Screen. Data for tumor model P388 Leukemia (intraperitoneal) in CD2F1 (CDF1) mice
Settings: endpoint: median survival time, higher = longer survival
Procedure, shortened: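 Mice carrying the transplanted tumor received test compound or vehicle. Survival was recorded in each group, and the value is the treated-group measurement divided by that of the vehicle-treated control group.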

[1] = dose: 50.0 mg/kg/injection, schedule: Q01DX009 (ip), vehicle: Klucel (hydroxypropylcellulose) (HPC)
[2] = dose: 100.0 mg/kg/injection, schedule: Q01DX009 (ip), vehicle: Klucel (hydroxypropylcellulose) (HPC)
[3] = dose: 200.0 mg/kg/injection, schedule: Q01DX009 (ip), vehicle: Klucel (hydroxypropylcellulose) (HPC)
[4] = dose: 100.0 mg/kg/injection, schedule: Q01DX001 (ip), vehicle: saline with Tween-80
[5] = dose: 50.0 mg/kg/injection, schedule: Q01DX009 (ip), vehicle: saline
[6] = dose: 100.0 mg/kg/injection, schedule: Q01DX009 (ip), vehicle: saline
[7] = dose: 200.0 mg/kg/injection, schedule: Q01DX009 (ip), vehicle: saline
[8] = dose: 50.0 mg/kg/injection, schedule: Q01DX009 (ip), vehicle: saline with Tween-80
[9] = dose: 100.0 mg/kg/injection, schedule: Q01DX009 (ip), vehicle: saline with Tween-80
[10] = dose: 25.0 mg/kg/injection, schedule: Q01DX005 (ip), vehicle: Klucel (hydroxypropylcellulose) (HPC)
[11] = dose: 50.0 mg/kg/injection, schedule: Q01DX005 (ip), vehicle: Klucel (hydroxypropylcellulose) (HPC)
[12] = dose: 60.0 mg/kg/injection, schedule: Q01DX005 (ip), vehicle: saline with Tween-80
[13] = dose: 120.0 mg/kg/injection, schedule: Q01DX005 (ip), vehicle: saline with Tween-80
[14] = dose: 240.0 mg/kg/injection, schedule: Q01DX005 (ip), vehicle: saline with Tween-80
[15] = dose: 12.5 mg/kg/injection, schedule: Q01DX009 (ip), vehicle: saline with Tween-80
[16] = dose: 25.0 mg/kg/injection, schedule: Q01DX009 (ip), vehicle: saline with Tween-80
[17] = dose: 100.0 mg/kg/injection, schedule: Q04DX003 (ip), vehicle: saline with Tween-80
[18] = dose: 100.0 mg/kg/injection, schedule: Q01DX005 (ip), vehicle: Klucel (hydroxypropylcellulose) (HPC)

Measured: T/C

COc1ccc(C2=[N+]([O-])C(C)(C)C(c3ccccc3)C2)cc1 (stereo not drawn)
inactive: [1] 97 % of control | [2] 101 % of control | [3] 100 % of control

O=C(Oc1ccccc1)N1CCCCC1
inactive: dose: 12.5 mg/kg/injection, schedule: Q01DX001 (ip), vehicle: saline with Tween-80 95 % of control | dose: 25.0 mg/kg/injection, schedule: Q01DX001 (ip), vehicle: saline with Tween-80 99 % of control | dose: 50.0 mg/kg/injection, schedule: Q01DX001 (ip), vehicle: saline with Tween-80 106 % of control | [4] 104 % of control

CN1C=C([N+](=O)[O-])C(N2CCOCC2)C1N1CCOCC1 (stereo not drawn)
inactive: dose: 60.0 mg/kg/injection, schedule: Q01DX005 (ip), vehicle: Klucel (hydroxypropylcellulose) (HPC) 96 % of control | dose: 120.0 mg/kg/injection, schedule: Q01DX005 (ip), vehicle: Klucel (hydroxypropylcellulose) (HPC) 114 % of control

O=C1CCCC(=O)OCCOCCOCCOCCOCCO1
inactive: dose: 12.5 mg/kg/injection, schedule: Q01DX009 (ip), vehicle: saline 104 % of control and 108 % of control | dose: 25.0 mg/kg/injection, schedule: Q01DX009 (ip), vehicle: saline 104 % of control and 95 % of control | [5] 104 % of control and 108 % of control and 120 % of control | [6] 105 % of control | [7] 105 % of control

O=C1CC2CCCCC2CC1c1ccc(OCc2ccccc2)c(OCc2ccccc2)c1 (stereo not drawn)
inactive: [8] 91 % of control | [9] 97 % of control | dose: 200.0 mg/kg/injection, schedule: Q01DX009 (ip), vehicle: saline with Tween-80 103 % of control

CC(=O)Nc1ccc2c(Nc3ccc(NS(C)(=O)=O)cc3)c3ccccc3nc2c1
active: dose: 0.09 mg/kg/injection, schedule: Q01DX009 (ip), vehicle: saline 151 % of control | dose: 0.09 mg/kg/injection, schedule: Q04DX003 (ip), vehicle: saline 156 % of control | dose: 0.13 mg/kg/injection, schedule: Q01DX009 (ip), vehicle: saline 151 % of control | dose: 0.13 mg/kg/injection, schedule: Q04DX003 (ip), vehicle: saline 175 % of control | dose: 0.2 mg/kg/injection, schedule: Q01DX009 (ip), vehicle: saline 164 % of control | dose: 0.2 mg/kg/injection, schedule: Q04DX003 (ip), vehicle: saline 166 % of control | dose: 0.29 mg/kg/injection, schedule: Q01DX009 (ip), vehicle: saline 190 % of control | dose: 0.3 mg/kg/injection, schedule: Q01DX009 (ip), vehicle: saline 169 % of control | dose: 0.3 mg/kg/injection, schedule: Q04DX003 (ip), vehicle: saline 175 % of control | dose: 0.44 mg/kg/injection, schedule: Q01DX009 (ip), vehicle: saline 193 % of control | dose: 0.66 mg/kg/injection, schedule: Q01DX009 (ip), vehicle: saline 193 % of control | dose: 1.0 mg/kg/injection, schedule: Q01DX009 (ip), vehicle: saline 200 % of control | dose: 1.0 mg/kg/injection, schedule: Q04DX003 (ip), vehicle: saline 155 % of control | dose: 2.2 mg/kg/injection, schedule: Q04DX003 (ip), vehicle: saline 177 % of control | dose: 3.3 mg/kg/injection, schedule: Q04DX003 (ip), vehicle: saline 186 % of control | dose: 5.0 mg/kg/injection, schedule: Q04DX003 (ip), vehicle: saline 227 % of control | dose: 7.5 mg/kg/injection, schedule: Q04DX003 (ip), vehicle: saline 245 % of control

O=C1NC(O)c2cc(Br)cc(Br)c2O1 (stereo not drawn)
inactive: dose: 12.5 mg/kg/injection, schedule: Q01DX005 (ip), vehicle: Klucel (hydroxypropylcellulose) (HPC) 100 % of control | [10] 101 % of control | [11] 103 % of control

Cn1c(=O)[nH]c2nnc(-c3ccccc3)nc2c1=O
inactive: [1] 107 % of control | [2] 106 % of control

Cc1cc(OCCCCOc2ccc(C#N)cc2)ccc1[N+](=O)[O-]
inactive: [12] 96 % of control | [13] 90 % of control | [14] 88 % of control

O=C(NC(Cc1cccc(F)c1)C(=O)O)c1ccccc1 (stereo not drawn)
inactive: dose: 6.25 mg/kg/injection, schedule: Q01DX009 (ip), vehicle: other 95 % of control | dose: 12.5 mg/kg/injection, schedule: Q01DX009 (ip), vehicle: other 96 % of control

CNC(=S)OCCn1c([N+](=O)[O-])cnc1C
inactive: [4] 92 % of control | dose: 200.0 mg/kg/injection, schedule: Q01DX001 (ip), vehicle: saline with Tween-80 106 % of control | dose: 400.0 mg/kg/injection, schedule: Q01DX001 (ip), vehicle: saline with Tween-80 105 % of control

CC(C)C1OCC(CO)([N+](=O)[O-])CO1 (stereo not drawn)
inactive: [12] 102 % of control | [13] 100 % of control | [14] 93 % of control

COc1ccc(NS(=O)(=O)c2ccc(N=Cc3c4ccccc4nc4cc(Cl)ccc34)cc2)nn1
inactive: [12] 91 % of control | [13] 90 % of control | [14] 87 % of control

COc1ccc2c(c1OC(C)=O)-c1cc(OC(C)=O)cc3c1C(C2)N(C(=O)CBr)CC3 (stereo not drawn)
inactive: dose: 6.25 mg/kg/injection, schedule: Q01DX009 (ip), vehicle: saline with Tween-80 104 % of control | [15] 104 % of control

[N-]=[N+]=Nc1ccc2nc(N)nc(N)c2c1
inactive: dose: 100.0 mg/kg/injection, schedule: Q01DX001 (ip), vehicle: Klucel (hydroxypropylcellulose) (HPC) 99 % of control | dose: 200.0 mg/kg/injection, schedule: Q01DX001 (ip), vehicle: Klucel (hydroxypropylcellulose) (HPC) 100 % of control

CC(=O)c1ccc2c(=O)c(C(=O)O)c[nH]c2c1
inactive: [15] 87 % of control | [16] 91 % of control | [5] 108 % of control | [6] 98 % of control | [7] 104 % of control

COc1ccc2c(c1)CC[C@@H]1[C@@H]2CC[C@@]2(C)[C@H]1CC[C@@]2(O)C(F)=C(F)F
inactive: [17] 88 % of control | dose: 200.0 mg/kg/injection, schedule: Q04DX003 (ip), vehicle: saline with Tween-80 88 % of control

O=[Te]=O
inactive: dose: 3.12 mg/kg/injection, schedule: Q01DX005 (ip), vehicle: saline 103 % of control | dose: 6.25 mg/kg/injection, schedule: Q01DX005 (ip), vehicle: saline 110 % of control | dose: 12.5 mg/kg/injection, schedule: Q01DX005 (ip), vehicle: saline 105 % of control and 116 % of control

OC(CCC1OCCO1)(CCC1OCCO1)c1ccccc1
inactive: [1] 97 % of control | [2] 103 % of control | [3] 93 % of control

CN1CCC(CN2c3ccccc3Sc3ccccc32)CC1
inactive: [16] 95 % of control | dose: 25.0 mg/kg/injection, schedule: Q04DX003 (ip), vehicle: saline with Tween-80 100 % of control | [8] 100 % of control | dose: 50.0 mg/kg/injection, schedule: Q04DX003 (ip), vehicle: saline with Tween-80 109 % of control | [9] 95 % of control | [17] 109 % of control

CC(=O)Nc1ccc(S(=O)(=O)n2c(=O)oc3cc(Br)ccc32)cc1
inactive: [10] 94 % of control | [11] 87 % of control and 90 % of control | [18] 87 % of control and 90 % of control

CCOC(=O)C1=C(C)NC(C)=C(C(=O)OCC)C1C
inactive: [6] 102 % of control | [7] 89 % of control

CN(C)C(=S)/N=C1\SCS(=O)(=O)N1C
inactive: [16] 91 % of control | [8] 110 % of control | [9] 100 % of control

CCCCOC(=O)CCC(CC(=O)OCCCC)C(=O)OCCCC (stereo not drawn)
inactive: dose: 50.0 mg/kg/injection, schedule: Q01DX005 (ip), vehicle: saline 103 % of control | dose: 100.0 mg/kg/injection, schedule: Q01DX005 (ip), vehicle: saline 103 % of control | dose: 200.0 mg/kg/injection, schedule: Q01DX005 (ip), vehicle: saline 105 % of control

OCC(O)C(O)C(O)Cc1ccc(O)cc1O (stereo not drawn)
inactive: [5] 98 % of control | [6] 106 % of control | [7] 104 % of control

CC(C)(C)c1cc(C(O)(C(F)(F)F)C(F)(F)F)c(Cl)c(C(O)(C(F)(F)F)C(F)(F)F)c1
inactive: [11] 94 % of control | [18] 90 % of control | dose: 200.0 mg/kg/injection, schedule: Q01DX005 (ip), vehicle: Klucel (hydroxypropylcellulose) (HPC) 92 % of control
